Laboratory results as given in US20170182077A1, “METHODS AND PHARMACEUTICAL COMPOSITIONS FOR THE TREATMENT OF ACUTE EXACERBATIONS OF CHRONIC OBSTRUCTIVE PULMONARY DISEASE” (INSERM (INSTITUT NATIONAL DE LA SANTÉ ET DE LA RECHERCHE …, priority 2014, published 2017).

Assays:
[1] = test system: lung cells (NKT cells) from Air and COPD mice; assay: Cytokine production by total lung cells stimulated with alpha-GalactosylCeramide (ELISA); format: cell-based, C57B1/6 mice; details: αGC 100 ng/ml, 48 hrs; for production of IL-22: after Sp challenge vs non infected, ELISA of supernatants
Method: FIG. 3—Lung cells from Air and COPD mice were treated with αGC (100 ng/ml) or not (Ctl, non stimulated) for 48 hrs. The concentrations of IL-22, IL-17, IFN-γ and IL-4 were analyzed by ELISA in the supernatants. Values represented the mean±SEM.
C57B1/6 mice were exposed to CS generated from 5 cigarettes per day, 5 days a week, over a period of 12 weeks using a smoking machine (Emka, Scireq, Canada).
Mice were inoculated with a clinical isolate of S. pneumoniae serotype 1 (Sp) (5×10^4 cfu). Bacteria stocks were kept frozen at −80° C. Bacteria were thawn just before infection, and the number of cfu was checked on chocolate plates. Infection was performed by intranasal route (50 μl/mouse).
Cytokine production was analyzed in total lung cells. For this, 5×10^5 lung cells were seeded on 96-well plates and then stimulated with alpha-GalactosylCeramide, or α-GC (100 ng/ml), and coated anti-CD3 Ab. Forty-eight hours later, supernatants were collected and analyzed for IFN-γ, IL-4, IL-17 and IL-22 concentration by ELISA (R&D Systems).

[2] = test system: peripheral blood mononuclear cells (PBMC); assay: Th17 cytokine secretion by peripheral blood mononuclear cells exposed to S. pneumoniae or PHA; format: cell-based, human; details: PHA 1 μg/ml, supernatants after 24 h
Method: Peripheral blood and induced or spontaneous sputum were collected in stable COPD patients (n=10), in smokers (without COPD, n=13)) and in non smoker healthy controls (n=14) (CPP 2008-A00690-55) in order to evaluate ex vivo the Th17 response to infection with S. pneumoniae. Peripheral blood mononuclear cells (PBMC) were purified on Ficoll Paque gradient and 3×10^6 cells/ml in complete RPMI1640 were exposed to S. pneumoniae (MOI=2) or to a positive control, phytohemagglutinin (1 μg/ml) (PHA, Difco). After 90 min, antibiotics were added to stop bacteria growth and supernatants were collected after 24 h incubation. In parallel, another batch of cells was incubated with brefeldin-A (10 μg/ml, Sigma) for 4 h before collection and was used for intracellular immuno-staining of cytokines in lymphocytes.

[3] = pulmonary cells from Air and COPD mice, after Sp infection, ELISA

Compound	IL-17 production ([1]; pulmonary cells from Air and COPD mice, after Sp challenge, ELISA)	levels of IFN-y [1, 3]	levels of IL-4 [1, 3]	production of IL-22 ([1]; pulmonary cells from Air mice)	production of IL-22 ([1]; pulmonary cells from COPD mice)	response (secretion, mainly IL-17 and IL-22) ([2]; PBMC of COPD patients)	levels of IL-17 and IL-22 ([2]; PBMC of non-smokers and smokers)
CCCCCCCCCCCCCCCCCCCCCCCCCC(=O)N[C@@H](CO[C@H]1O[C@H](CO)[C@H](O)[C@H](O)[C@H]1O)[C@H](O)[C@H](O)CCCCCCCCCCCCCC [alpha-GalactosylCeramide]	failed to increase IL-17 production	higher levels	higher levels	higher production of IL-22	absent	–	–
phytohemagglutinin [PHA]	–	–	–	–	–	partially altered	significantly increased
